ChEMBL document CHEMBL5712895, “PRC2 Is Dispensable in Vivo for β-Catenin-Mediated Repression of Chondrogenesis in the Mouse Embryonic Cranial Mesenchyme” (G3 (Bethesda), 2018)
Active and inactive are the calls of the source. No cut-off for these calls is given here.

Assays:
[1] = molecular target: Histone-lysine N-methyltransferase EZH2 (Mus musculus) (UniProt Q61188); assay: Inhibition of EZH2 in mouse primary cranial mesenchyme ectoderm fibroblast assessed as reduction in H3K27me3 protein level at 150 to 2000 nM by Western blotting analysis; conditions: dose 150-2000 nM
Sequence of Histone-lysine N-methyltransferase EZH2 (Mus musculus) (Q61188 whole entry): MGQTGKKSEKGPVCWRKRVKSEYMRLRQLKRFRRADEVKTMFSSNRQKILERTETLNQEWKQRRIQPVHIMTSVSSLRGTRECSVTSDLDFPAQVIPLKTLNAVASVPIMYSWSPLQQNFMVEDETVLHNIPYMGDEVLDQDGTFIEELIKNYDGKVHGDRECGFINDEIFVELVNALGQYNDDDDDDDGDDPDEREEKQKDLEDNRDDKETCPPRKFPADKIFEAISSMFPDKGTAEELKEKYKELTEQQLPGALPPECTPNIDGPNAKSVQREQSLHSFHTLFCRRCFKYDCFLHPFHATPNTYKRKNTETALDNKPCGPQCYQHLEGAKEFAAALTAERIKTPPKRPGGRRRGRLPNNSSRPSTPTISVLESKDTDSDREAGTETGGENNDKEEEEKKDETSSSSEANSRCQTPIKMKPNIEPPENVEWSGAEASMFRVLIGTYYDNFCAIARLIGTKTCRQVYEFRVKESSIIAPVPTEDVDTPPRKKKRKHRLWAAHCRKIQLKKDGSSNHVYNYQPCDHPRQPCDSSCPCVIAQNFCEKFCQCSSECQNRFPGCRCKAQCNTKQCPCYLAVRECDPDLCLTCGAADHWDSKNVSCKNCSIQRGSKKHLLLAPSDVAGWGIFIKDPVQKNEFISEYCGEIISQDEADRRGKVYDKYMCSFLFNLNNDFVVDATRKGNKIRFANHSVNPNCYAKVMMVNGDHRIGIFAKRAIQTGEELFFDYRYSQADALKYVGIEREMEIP

[2] = molecular target: Histone-lysine N-methyltransferase EZH2 (Mus musculus) (UniProt Q61188); assay: Inhibition of EZH2 in mouse primary cranial mesenchyme ectoderm fibroblast assessed as increase in Sox9 mRNA level by qPCR analysis
[3] = molecular target: T1, Histone-lysine N-methyltransferase EZH1 (Homo sapiens, UniProt Q92800); assay: Inhibition of EZH1 (unknown origin)
T1 sequence (Q92800 whole entry): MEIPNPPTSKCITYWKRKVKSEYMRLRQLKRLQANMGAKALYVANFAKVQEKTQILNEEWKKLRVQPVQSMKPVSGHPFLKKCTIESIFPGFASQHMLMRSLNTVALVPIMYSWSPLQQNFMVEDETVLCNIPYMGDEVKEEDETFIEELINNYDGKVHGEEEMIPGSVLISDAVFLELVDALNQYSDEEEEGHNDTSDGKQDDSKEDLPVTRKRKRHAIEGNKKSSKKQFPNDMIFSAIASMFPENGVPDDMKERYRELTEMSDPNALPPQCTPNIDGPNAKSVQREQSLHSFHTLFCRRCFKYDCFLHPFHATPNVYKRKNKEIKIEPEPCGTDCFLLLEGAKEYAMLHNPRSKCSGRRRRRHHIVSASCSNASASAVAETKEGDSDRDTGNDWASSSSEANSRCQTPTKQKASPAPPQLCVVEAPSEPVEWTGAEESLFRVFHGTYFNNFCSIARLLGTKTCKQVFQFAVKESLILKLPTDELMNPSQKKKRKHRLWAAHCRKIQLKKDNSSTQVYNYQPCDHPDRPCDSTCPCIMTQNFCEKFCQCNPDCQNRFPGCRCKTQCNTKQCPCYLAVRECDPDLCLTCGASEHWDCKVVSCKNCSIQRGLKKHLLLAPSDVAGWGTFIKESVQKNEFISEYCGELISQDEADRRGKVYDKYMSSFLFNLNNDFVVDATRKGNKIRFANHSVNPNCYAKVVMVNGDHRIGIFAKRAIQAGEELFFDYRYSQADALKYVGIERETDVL

[4] = molecular target: Histone-lysine N-methyltransferase EZH2 (Mus musculus) (UniProt Q61188); assay: Inhibition of EZH2 in mouse primary cranial mesenchyme ectoderm fibroblast assessed as reduction in H3K27me3 protein level at 500 to 2000 nM by Western blotting analysis; conditions: dose 500-2000 nM
[5] = molecular target: Histone-lysine N-methyltransferase EZH2 (Homo sapiens, UniProt Q15910); assay: Inhibition of EZH2 (unknown origin)
Sequence of Histone-lysine N-methyltransferase EZH2 (Q15910 whole entry): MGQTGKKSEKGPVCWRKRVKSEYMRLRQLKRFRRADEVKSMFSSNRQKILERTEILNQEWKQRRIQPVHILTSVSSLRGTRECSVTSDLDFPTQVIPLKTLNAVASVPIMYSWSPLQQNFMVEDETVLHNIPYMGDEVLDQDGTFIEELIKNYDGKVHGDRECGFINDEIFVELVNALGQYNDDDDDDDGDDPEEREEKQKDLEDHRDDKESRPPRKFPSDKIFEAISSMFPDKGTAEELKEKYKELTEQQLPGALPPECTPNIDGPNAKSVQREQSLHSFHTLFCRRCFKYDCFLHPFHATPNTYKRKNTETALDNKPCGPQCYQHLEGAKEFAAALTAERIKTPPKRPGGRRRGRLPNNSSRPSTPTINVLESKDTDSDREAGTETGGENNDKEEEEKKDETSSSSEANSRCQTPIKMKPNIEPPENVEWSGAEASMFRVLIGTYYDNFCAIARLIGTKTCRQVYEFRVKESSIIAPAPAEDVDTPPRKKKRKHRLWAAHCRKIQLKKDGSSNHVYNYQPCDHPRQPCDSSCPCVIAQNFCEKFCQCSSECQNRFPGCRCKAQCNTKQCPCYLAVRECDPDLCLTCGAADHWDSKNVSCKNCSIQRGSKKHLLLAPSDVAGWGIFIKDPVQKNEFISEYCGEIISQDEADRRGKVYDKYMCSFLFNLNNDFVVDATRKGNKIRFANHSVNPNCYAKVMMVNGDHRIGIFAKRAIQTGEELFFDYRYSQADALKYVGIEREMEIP

| inhibition [1] | inhibition [2] | IC50 [3] | inhibition [4] | IC50 [5] | SMILES |
| --- | --- | --- | --- | --- | --- |
| Active | inactive | 75 nM |  |  | CC[C@H](C)n1cc(C)c2c(C(=O)NCc3c(C)cc(C)[nH]c3=O)cc(-c3ccc(N4CCNCC4)nc3)cc21 [GSK2816126] |
|  | inactive |  | Active | < 10 nM | CCCc1cc(C)[nH]c(=O)c1CNC(=O)c1cc(-c2ccc(N3CCN(C(C)C)CC3)nc2)cc2c1cnn2C(C)C |
